According to PubChem BioAssay (NCI):
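GI50 marks 50% less growth. TGI marks complete inhibition of growth.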

Legend:
Experiment in all cases: DTP human tumour cell line panel, 384-well format
[1] = system: A549 NSCLC
[2] = system: SN12C renal
[3] = system: IGROV1 ovarian
[4] = system: CAKI-1 renal
[5] = system: NCI-H522 lung
[6] = system: NCI-H226 lung
[7] = system: RXF 393 renal
[8] = system: SW-620 colon
[9] = system: UACC-257 melanoma
[10] = system: BT-549 breast
[11] = system: HS 578T breast
[12] = system: RPMI-8226 leukemia
[13] = system: HCT-15 colon
[14] = system: SNB-19 CNS
[15] = system: SF-268 CNS
[16] = system: KM12 colon
[17] = system: NCI-H23 lung
[18] = system: MCF7 breast
[19] = system: M14 melanoma
[20] = system: DU-145 prostate
[21] = system: LOX IMVI melanoma
[22] = system: A498 renal
[23] = system: U251 glioblastoma
[24] = system: SF-539 CNS
[25] = system: SK-MEL-5 melanoma
[26] = system: T-47D breast
[27] = system: HCC-2998 colon
[28] = system: HL-60(TB) leukemia
[29] = system: TK-10 renal

O=C(NOCCO)c1ccc2cncn2c1Nc1ccc(I)cc1F
GI50 [1]: 0.026 µM
TGI [1]: 11.1 µM
GI50 [2]: < 0.01 µM
TGI [2]: 17.9 µM
GI50 [3]: < 0.01 µM
TGI [3]: 12.6 µM
GI50 [4]: 0.0109 µM
TGI [4]: 13.3 µM
GI50 [5]: 11.8 µM
TGI [5]: 26.4 µM
GI50 [6]: 1.01 µM
TGI [6]: 18.3 µM
GI50 [7]: 0.196 µM
TGI [7]: 15.1 µM
GI50 [8]: < 0.01 µM
TGI [8]: 12.5 µM
GI50 [9]: < 0.01 µM
TGI [9]: < 0.01 µM
GI50 [10]: 10 µM
TGI [10]: 25.4 µM
GI50 [11]: 1.22 µM
TGI [11]: 7.01 µM
GI50 [12]: 2.16 µM
TGI [12]: 20.9 µM
GI50 [13]: 0.301 µM
TGI [13]: > 100 µM
GI50 [14]: 0.0878 µM
TGI [14]: 20.6 µM
GI50 [15]: 9.41 µM
TGI [15]: 22.9 µM
GI50 [16]: < 0.01 µM
TGI [16]: 17.9 µM
GI50 [17]: < 0.01 µM
TGI [17]: 0.077 µM
GI50 [18]: 11.5 µM
TGI [18]: 47.2 µM
GI50 [19]: < 0.01 µM
TGI [19]: < 0.01 µM
GI50 [20]: 2.14 µM
TGI [20]: 22.4 µM
GI50 [21]: < 0.01 µM
TGI [21]: 0.259 µM
GI50 [22]: 11.9 µM
TGI [22]: 32.4 µM
GI50 [23]: 0.0466 µM
TGI [23]: 10.6 µM
GI50 [24]: 0.288 µM
TGI [24]: 11.7 µM
GI50 [25]: < 0.01 µM
TGI [25]: 15.8 µM
GI50 [26]: 15.2 µM
TGI [26]: 43.1 µM
GI50 [27]: < 0.01 µM
TGI [27]: 0.0101 µM
GI50 [28]: < 0.01 µM
TGI [28]: < 0.01 µM
GI50 [29]: 0.0704 µM
TGI [29]: 27.4 µM
